Reference: publication PMC3914206

Tests used:
Assay type in all cases: binding
Settings in all cases: Compound Concentration 10 µM
panel of 442 kinases [1] = target: T1, panel of 442 kinases (Homo sapiens, UniProt P31751)
T1 construct: purchased KINOMEscan
From the text: (§1) We assessed the selectivity of members of this scaffold using the KINOMEscan methodology across a near comprehensive panel of 442 kinases [[18,27]].

panel of 442 kinases [2] = target: T2, panel of 442 kinases (Homo sapiens, UniProt Q9NYY3)
T2 construct: purchased KINOMEscan
T2 sequence (Q9NYY3 whole entry): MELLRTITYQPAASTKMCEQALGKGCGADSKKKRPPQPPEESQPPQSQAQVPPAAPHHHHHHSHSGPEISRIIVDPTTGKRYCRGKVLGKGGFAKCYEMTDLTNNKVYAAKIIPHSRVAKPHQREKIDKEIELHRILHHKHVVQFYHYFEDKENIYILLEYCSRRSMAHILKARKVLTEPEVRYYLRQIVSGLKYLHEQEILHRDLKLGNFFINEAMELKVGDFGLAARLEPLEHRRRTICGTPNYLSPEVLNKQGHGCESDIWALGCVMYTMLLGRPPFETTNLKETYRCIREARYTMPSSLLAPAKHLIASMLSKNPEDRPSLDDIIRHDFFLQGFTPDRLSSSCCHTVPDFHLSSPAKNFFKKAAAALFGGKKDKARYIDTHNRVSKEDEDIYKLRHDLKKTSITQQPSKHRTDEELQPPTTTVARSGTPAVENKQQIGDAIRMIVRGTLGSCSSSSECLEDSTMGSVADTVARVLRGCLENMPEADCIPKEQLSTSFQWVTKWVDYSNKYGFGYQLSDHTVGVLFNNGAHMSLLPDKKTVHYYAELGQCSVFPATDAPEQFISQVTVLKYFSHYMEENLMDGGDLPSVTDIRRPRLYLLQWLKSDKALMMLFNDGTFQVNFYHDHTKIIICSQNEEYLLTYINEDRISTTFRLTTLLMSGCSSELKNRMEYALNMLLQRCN
From the text: as §1

panel of 442 kinases [3] = target: T3, panel of 442 kinases (Homo sapiens, UniProt P36888, R834Q)
T3 construct: purchased KINOMEscan
T3 sequence (P36888 27-993 R834Q): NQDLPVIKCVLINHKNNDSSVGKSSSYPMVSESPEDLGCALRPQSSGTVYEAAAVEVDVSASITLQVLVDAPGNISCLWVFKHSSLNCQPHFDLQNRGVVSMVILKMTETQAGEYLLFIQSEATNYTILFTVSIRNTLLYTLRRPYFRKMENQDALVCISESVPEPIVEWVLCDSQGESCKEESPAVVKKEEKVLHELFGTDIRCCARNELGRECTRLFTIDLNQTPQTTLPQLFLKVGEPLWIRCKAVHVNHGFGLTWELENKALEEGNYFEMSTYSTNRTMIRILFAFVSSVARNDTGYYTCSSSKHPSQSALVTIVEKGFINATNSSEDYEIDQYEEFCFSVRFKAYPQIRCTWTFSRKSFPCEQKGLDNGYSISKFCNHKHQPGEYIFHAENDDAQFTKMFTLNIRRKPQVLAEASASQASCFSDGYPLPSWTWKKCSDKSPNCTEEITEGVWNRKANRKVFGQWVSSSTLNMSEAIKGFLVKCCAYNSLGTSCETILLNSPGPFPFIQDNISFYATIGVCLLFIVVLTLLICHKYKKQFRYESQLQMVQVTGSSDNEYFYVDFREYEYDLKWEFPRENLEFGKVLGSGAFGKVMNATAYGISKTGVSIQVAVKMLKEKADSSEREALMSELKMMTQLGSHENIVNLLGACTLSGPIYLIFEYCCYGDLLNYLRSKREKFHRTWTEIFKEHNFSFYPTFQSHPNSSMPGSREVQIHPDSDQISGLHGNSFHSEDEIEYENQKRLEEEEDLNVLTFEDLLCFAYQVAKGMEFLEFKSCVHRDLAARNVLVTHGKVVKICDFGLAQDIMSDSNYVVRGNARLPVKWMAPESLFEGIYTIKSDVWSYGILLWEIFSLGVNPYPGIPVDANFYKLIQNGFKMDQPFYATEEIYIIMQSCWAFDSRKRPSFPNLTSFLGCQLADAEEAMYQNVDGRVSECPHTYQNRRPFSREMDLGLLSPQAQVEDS
From the text: as §1

T1 sequence (P31751 whole entry): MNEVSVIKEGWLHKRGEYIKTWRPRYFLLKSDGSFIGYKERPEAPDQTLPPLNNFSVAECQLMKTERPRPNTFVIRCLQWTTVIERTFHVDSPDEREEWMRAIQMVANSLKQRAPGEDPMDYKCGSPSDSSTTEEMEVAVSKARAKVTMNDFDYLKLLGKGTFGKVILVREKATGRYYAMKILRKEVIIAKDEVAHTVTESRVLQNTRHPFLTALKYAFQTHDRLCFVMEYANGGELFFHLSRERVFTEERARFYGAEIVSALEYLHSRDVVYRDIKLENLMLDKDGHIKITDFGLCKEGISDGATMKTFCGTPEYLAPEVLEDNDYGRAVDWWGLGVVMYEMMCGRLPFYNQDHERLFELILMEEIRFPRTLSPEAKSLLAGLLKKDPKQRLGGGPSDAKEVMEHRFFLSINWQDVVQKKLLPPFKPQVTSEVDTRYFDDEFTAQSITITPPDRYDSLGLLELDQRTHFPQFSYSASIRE

SMILES	KINOMEscan: AKT2 (panel of 442 kinases [1])	KINOMEscan: PLK2 (panel of 442 kinases [2])	KINOMEscan: FLT3(R834Q) (panel of 442 kinases [3])
COc1cc(C(=O)N2CCC(N3CCN(C)CC3)CC2)ccc1Nc1ncc2c(n1)N(C1CCCC1)c1ccccc1C(=O)N2C [Compound 25, 11-cyclopentyl-2-((2-methoxy-4-(4-(4-methylpiperazin-1-yl)piperidine-1-carbonyl)phenyl)amino)-5-methyl-5H-benzo[e]pyrimido[5,4-b][1,4]diazepin-6(11H)-one]	100	100	100
CCOc1cc(C(=O)N2CCC(N3CCN(C)CC3)CC2)ccc1Nc1ncc2c(n1)N(C1CCCC1)c1ccccc1C(=O)N2C [Compound 26]	100	97	100
COc1cc(C(=O)N2CCC(N3CCN(C)CC3)CC2)ccc1Nc1ncc2c(n1)N1CCc3cccc(c31)C(=O)N2C [Compound 24]		8.8	100
COc1cc(C(=O)N2CCC(N3CCN(C)CC3)CC2)ccc1Nc1ncc2c(n1)N(C)c1ccccc1C(=O)N2C [15 (LRRK2-IN-1)]	100	100	100
